Assay results: article PMC6021032, “Antimycobacterial activity of nitrogen heterocycles derivatives: 7-(pyridine-4-yl)-indolizine derivatives. Part VII^8–12” (Journal of Enzyme Inhibition and Medicinal Chemistry, 2017)
Like-named read-outs stand apart in the source and are kept apart here.

Legend:
CYP3A4 = biological target: T1, CYP3A4 (Homo sapiens, UniProt P08684); assay: Cytochrome P450 inhibition in human liver microsomes; format: in vitro ADME
T1 construct: Compounds were incubated with human liver; from tissue; host or cells: human liver microsomes
T1 sequence (P08684 whole entry): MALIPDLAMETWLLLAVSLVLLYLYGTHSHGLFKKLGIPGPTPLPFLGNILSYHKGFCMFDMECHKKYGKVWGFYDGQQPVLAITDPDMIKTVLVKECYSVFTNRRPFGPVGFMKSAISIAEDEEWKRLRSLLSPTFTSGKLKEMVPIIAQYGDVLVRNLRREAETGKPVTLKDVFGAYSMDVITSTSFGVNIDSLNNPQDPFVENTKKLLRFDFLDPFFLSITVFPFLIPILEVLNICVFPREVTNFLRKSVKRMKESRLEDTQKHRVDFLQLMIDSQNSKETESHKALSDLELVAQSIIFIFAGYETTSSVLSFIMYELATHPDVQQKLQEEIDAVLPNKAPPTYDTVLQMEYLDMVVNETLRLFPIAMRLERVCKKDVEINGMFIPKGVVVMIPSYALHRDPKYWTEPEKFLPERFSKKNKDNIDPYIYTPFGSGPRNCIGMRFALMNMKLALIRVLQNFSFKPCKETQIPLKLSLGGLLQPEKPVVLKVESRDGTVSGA

[1] = Caco-2 permeability assay; conditions: human, Caco-2
Protocol: The Caco-2 cell layer permeability assay is widely used as a more predictive in vitro model of absorption through the intestinal epithelium. […] For B–A permeability, test compound was added to the basal side of the Caco-2 monolayer and the transport of the compound to the apical side monitored. The amount of compound present in each compartment was quantified by LC-MS/MS.
recovered and analyzed by LC-MS/MS.
3.2. Caco-2 Permeability Assay
feeding at 2-day intervals.
Each experiment included the
contained transport buffer at pH 7.4.
3.3. Cytochrome P450 Inhibition Assay
and was < 0.2%. Samples were run in duplicate. Compounds were incubated with human liver

[2] = tested on: Mycobacterium tuberculosis H37Rv; assay: Primary screen (Cycle 1): MIC, IC50, IC90 under aerobic conditions; format: cell-based
M. tuberculosis H37Rv = assay: Cycle 2 repeat of MIC, IC50, IC90 under aerobic conditions (lower starting concentrations); format: cell-based, Mycobacterium tuberculosis; conditions: Mycobacterium tuberculosis, revaluation
CYP2C8 = biological target: T2, CYP2C8 (Homo sapiens, UniProt P10632); assay: Cytochrome P450 inhibition in human liver microsomes; format: in vitro ADME
T2 construct: Compounds were incubated with human liver; from tissue; host or cells: human liver microsomes
T2 sequence (P10632 1-490): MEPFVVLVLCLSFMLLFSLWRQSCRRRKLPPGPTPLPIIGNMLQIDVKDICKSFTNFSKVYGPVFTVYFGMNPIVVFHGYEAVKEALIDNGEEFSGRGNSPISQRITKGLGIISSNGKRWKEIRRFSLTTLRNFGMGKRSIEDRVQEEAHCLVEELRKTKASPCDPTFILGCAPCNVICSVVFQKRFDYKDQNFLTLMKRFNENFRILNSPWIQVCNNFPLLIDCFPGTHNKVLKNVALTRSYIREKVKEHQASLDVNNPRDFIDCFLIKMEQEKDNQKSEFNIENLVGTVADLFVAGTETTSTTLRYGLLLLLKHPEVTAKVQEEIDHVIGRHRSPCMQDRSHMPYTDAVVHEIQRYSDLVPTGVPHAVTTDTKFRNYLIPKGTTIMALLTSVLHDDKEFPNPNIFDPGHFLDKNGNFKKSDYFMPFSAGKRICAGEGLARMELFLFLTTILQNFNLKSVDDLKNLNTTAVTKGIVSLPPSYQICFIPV

[3] = tested on: human liver cells (HepG2); assay: HepG2 cytotoxicity (CellTiter-Glo); format: cell-based; conditions: read-out: IC50 (50% loss of viability), 72 h
CYP2C9 = biological target: T3, CYP2C9 (Homo sapiens, UniProt P11712); assay: Cytochrome P450 inhibition in human liver microsomes; format: in vitro ADME
T3 construct: Compounds were incubated with human liver; from tissue; host or cells: human liver microsomes
T3 sequence (P11712 whole entry): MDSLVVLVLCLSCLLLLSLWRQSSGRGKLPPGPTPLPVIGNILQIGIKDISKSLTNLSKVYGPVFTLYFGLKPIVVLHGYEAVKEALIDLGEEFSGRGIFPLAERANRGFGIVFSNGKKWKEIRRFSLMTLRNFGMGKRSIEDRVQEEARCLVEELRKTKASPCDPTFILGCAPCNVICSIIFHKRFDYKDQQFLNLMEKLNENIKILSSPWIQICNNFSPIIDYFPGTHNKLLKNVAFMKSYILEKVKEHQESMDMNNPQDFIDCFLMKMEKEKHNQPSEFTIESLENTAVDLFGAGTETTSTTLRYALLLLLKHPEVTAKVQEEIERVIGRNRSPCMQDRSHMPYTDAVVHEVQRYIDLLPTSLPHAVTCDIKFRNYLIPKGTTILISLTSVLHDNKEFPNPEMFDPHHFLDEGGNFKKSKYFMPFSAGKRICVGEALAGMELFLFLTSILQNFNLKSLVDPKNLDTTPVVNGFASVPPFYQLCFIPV

in vitro = conditions: human
Source text: The stability of compound is expressed as a function of time[41]^,[42]
3.4. In vitro Microsomal Stability Assay
compound to detect NADPH-free degradation. Verapamil and dextromethorphan were
included as control compounds.

Mycobacterium abscessus = assay: MIC, IC50, IC90 against nontuberculous mycobacteria (OD590); format: cell-based; conditions: M. abscessus
Mtb H37Rv = assay: LORA parallel plates, oxygen-deprived bacteria incubated under aerobic conditions (normal oxygen); format: cell-based, Mycobacterium tuberculosis; conditions: Mycobacterium tuberculosis, H37RV
[4] = Cytotoxicity, THP-1 cell viability (CellTiter-Glo); conditions: human
CYP2C19 = biological target: T4, CYP2C19 (Homo sapiens, UniProt P33261); assay: Cytochrome P450 inhibition in human liver microsomes; format: in vitro ADME
T4 construct: Compounds were incubated with human liver; from tissue; host or cells: human liver microsomes
T4 sequence (P33261 whole entry): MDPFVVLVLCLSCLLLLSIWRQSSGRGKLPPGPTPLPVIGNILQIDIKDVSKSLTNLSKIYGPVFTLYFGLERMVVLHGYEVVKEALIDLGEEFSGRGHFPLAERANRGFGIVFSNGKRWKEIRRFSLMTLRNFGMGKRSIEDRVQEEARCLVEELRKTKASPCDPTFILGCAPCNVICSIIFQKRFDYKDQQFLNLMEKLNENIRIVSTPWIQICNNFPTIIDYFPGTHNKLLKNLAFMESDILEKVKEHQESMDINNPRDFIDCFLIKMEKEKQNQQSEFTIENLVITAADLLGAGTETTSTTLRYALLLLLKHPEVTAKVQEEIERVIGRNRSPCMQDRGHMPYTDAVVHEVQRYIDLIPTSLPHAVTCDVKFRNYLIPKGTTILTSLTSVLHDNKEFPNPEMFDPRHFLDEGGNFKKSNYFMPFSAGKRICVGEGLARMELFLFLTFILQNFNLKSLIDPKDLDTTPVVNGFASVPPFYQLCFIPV

Mycobacterium avium = assay: MIC against nontuberculous mycobacteria (Alamar blue); format: cell-based; conditions: M. avium
[5] = tested on: THP-1 cell line infected with Mtb; assay: Intracellular activity assay, luminescence; format: cell-based, Mycobacterium tuberculosis; conditions: Mycobacterium tuberculosis, Mtb-infected THP-1 cells, 72 h
Protocol: Since the overall efficacy of any anti TB drug will be improved by its ability to traffic into the macrophage phagosome containing replicating bacteria, we evaluated the intracellular activity of compounds[24]. This was measured by using THP-1 cell line infected with Mtb. Infected cells were exposed to compounds for 72 h and viable bacterial counts were measured using luminescence as a measure of intracellular growth.
Assay (Promega) which uses ATP as an indicator of cell viability. Relative luminescent units (RLU) were measured using a Biotek Synergy 4 plate reader. The dose response curve was fitted using the Levenberg–Marquardt algorithm. The IC50 was defined as the compound […]
Intracellular Activity Assay
The activity of compounds against intracellular bacteria was determined by measuring viability in infected THP-1 cell after 3 days in the presence of test compounds. Compounds were prepared as 10-point three-fold serial dilutions in DMSO. The highest concentration of […]
THP-1 cells were cultured in complete RPMI and differentiated into macrophage-like cells using 80 nM PMA overnight at 37°C, 5% CO2. THP-1 cells were infected with a luminescent strain of H37Rv (which constitutively expresses luxABCDE) at a multiplicity of infection of 1 and incubated overnight at 37°C, 5% CO2. Infected cells were recovered using Accutase/EDTA solution, washed twice with PBS to remove extracellular bacteria and seeded into assay pates. Compound dilutions were added to a final DMSO concentration of 0.5%.
Assay plates were incubated for 72 h at 37°C, 5% CO2. Each run included isoniazid as a control. Relative luminescent units (RLU) were measured using a Biotek Synergy 2 plate reader. The dose response curve was fitted using the Levenberg–Marquardt algorithm. The […]
inhibition of growth respectively.
3. Cycle 3 – Absorption, distribution, metabolism, excretion and toxicity (ADMET)
3.1. Plasma Protein Binding Assay
Compounds were added to human plasma at a fixed concentration of 5 µM. The mixture was dialyzed in a RED device (Rapid Equilibrium Dialysis, Pierce) against PBS and incubated on an orbital shaker for 4 h at 37 °C. Aliquots from plasma and PBS sides were collected; an equal volume of PBS was added to the plasma sample, and an equal volume of plasma was added to the PBS sample. Three volumes of methanol (containing the internal binding standard propranolol) was added to precipitate the proteins and release the compound.
Each compound was tested in duplicate. Samples were centrifuged, the supernatant was […]

[6] = Mycobacterium tuberculosis, M. tuberculosis H37Rv, aerobic conditions, primary screen

Which results are given for `CCOC(=O)c1cc(C(=O)c2ccc(Cl)cc2)n2ccc(-c3cc[n+](CC(=O)c4ccc(C)cc4)cc3)cc12` [Compound 6i]?
IC50 CYP3A4-Midazolam (CYP3A4; probe substrate midazolam): moderate inhibition; IC50 (CYP3A4; probe substrate midazolam, read-out: IC50 CYP3A4-Midazolam): 0.48 µM; IC50 CYP3A4-Testosterone (CYP3A4; probe substrate testosterone): high inhibition; IC50 (CYP3A4; probe substrate testosterone, read-out: IC50 CYP3A4-Testosterone): 0.081 µM; Papp B→A [1]: 1.3 ×10⁻⁶ cm/s; efflux ratio [1]: 1.7; MIC ([2]; M. tuberculosis H37Rv, aerobic conditions, primary screen): 8.0 µM; MIC ([2]; MIC value taken from the first MIC assay): 8 µM; IC50 [2, 6]: 7.2 µM; IC90 [2, 6]: 8.2 µM; MIC [2, 6]: 8 µM; IC50 (M. tuberculosis H37Rv; aerobic): 9.8 µM; IC90 (M. tuberculosis H37Rv; aerobic): 17 µM; MIC (M. tuberculosis H37Rv; repeated at lower starting concentrations, read-out: MIC aerobic condition): 16 µM; IC50 (CYP2C8): > 5 µM; IC50 [3]: 7 µM; IC50 (CYP2C9): > 5 µM; NADPH-dependent CLint (in vitro; s9): very highly cleared; microsomal CLint at 1 μM (in vitro; s9, NADPH-dependent CLint): 369 µL/min/mg; half-life at 1 μM (in vitro; s9, NADPH-dependent T1/2): 6.3 min; microsomal CLint at 1 μM (in vitro; s9, NADPH-free CLint): < 12.8 µL/min/mg; half-life at 1 μM (in vitro; s9, NADPH-free T1/2): > 180 min; MIC (Mycobacterium abscessus): showed activity; IC50 (Mycobacterium abscessus; Mycobacteroides abscessus): 14 µM; IC90 (Mycobacterium abscessus; Mycobacteroides abscessus): 23 µM; MIC (Mycobacterium abscessus; Mycobacteroides abscessus, read-out: MIC): 25 µM; IC50 (Mtb H37Rv): 6.5 µM; IC90 (Mtb H37Rv): 28 µM; MIC (Mtb H37Rv; 120 h, oxygen-deprived bacteria, aerobic 5 d): 140 µM; IC50 at 3 days [4]: 3.8 µM; IC50 (CYP2C19): > 5 µM; MIC (Mycobacterium avium): 50 µM; MIC (Mycobacterium avium; Mycobacterium avium): 50 µM; IC50 ([5]; read-out: IC50 intracell): 10 µM; IC90 ([5]; read-out: IC90 intracell): 48 µM
